Data reported in ChEMBL document CHEMBL5625191, “A review of progress in o-aminobenzamide-based HDAC inhibitors with dual targeting capabilities for cancer therapy” (Eur J Med Chem, 2023).

How the values were obtained:
Histone deacetylase [1] = assay: Inhibition of HDAC (unknown origin); type: protein assay, Homo sapiens
Histone deacetylase 2 [2] = target: T1, Histone deacetylase 2 (Homo sapiens, UniProt Q92769); assay: Inhibition of full length C-terminal FLAG-tagged human recombinant HDAC2 (1 to 488 residues) expressed in Sf9 cells using fluorogenic Boc-Lys(Ac)-AMC as substrate incubated for 90 mins by Synergy H1 plate reader analysis
T1 sequence (Q92769 whole entry, the tested form may be a part): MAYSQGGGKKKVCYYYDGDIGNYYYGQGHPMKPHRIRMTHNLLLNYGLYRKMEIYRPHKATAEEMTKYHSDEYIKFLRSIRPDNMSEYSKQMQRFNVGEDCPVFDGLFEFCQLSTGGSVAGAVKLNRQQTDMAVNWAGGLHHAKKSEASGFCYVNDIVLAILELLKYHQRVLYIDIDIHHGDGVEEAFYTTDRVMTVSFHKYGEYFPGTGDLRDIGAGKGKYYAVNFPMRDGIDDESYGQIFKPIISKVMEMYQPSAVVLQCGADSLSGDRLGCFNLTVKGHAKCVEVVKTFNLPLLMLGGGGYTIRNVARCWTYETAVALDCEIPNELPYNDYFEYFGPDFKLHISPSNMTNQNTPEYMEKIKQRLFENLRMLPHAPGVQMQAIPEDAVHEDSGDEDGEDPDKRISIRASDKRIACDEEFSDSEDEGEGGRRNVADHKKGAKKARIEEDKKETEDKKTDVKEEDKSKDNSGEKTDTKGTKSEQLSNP

Histone deacetylase 3 = Histone deacetylase 3 (Homo sapiens, UniProt O15379); assay: Inhibition of C-terminl his-tagged human recombinant HDAC3 (1 to 428 residues) expressed in Sf9 cells using fluorogenic Boc-Lys(Ac)-AMC as substrate incubated for 90 mins by Synergy H1 plate reader analysis
Chain of Histone deacetylase 3 (O15379 whole entry, the tested form may be a part): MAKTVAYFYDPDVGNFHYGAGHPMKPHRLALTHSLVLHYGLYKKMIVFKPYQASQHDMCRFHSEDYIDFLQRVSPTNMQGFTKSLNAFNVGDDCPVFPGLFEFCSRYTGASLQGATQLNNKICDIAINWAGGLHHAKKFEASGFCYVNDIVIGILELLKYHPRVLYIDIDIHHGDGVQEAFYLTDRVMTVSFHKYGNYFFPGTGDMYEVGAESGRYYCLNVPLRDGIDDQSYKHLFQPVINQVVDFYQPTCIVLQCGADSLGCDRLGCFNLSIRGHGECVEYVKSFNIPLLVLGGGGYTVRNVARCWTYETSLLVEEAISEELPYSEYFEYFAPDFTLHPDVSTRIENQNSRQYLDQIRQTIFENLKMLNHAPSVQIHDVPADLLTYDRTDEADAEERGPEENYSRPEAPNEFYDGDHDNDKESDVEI

Histone deacetylase 1 [3] = target: T2, Histone deacetylase 1 (Homo sapiens, UniProt Q13547); assay: Inhibition of full length C-terminal his6-tagged human recombinant HDAC1 (1 to 482 residues) expressed in Sf9 cells using fluorogenic Boc-Lys(Ac)-AMC as substrate incubated for 90 mins by Synergy H1 plate reader analysis
T2 sequence (Q13547 whole entry, the tested form may be a part): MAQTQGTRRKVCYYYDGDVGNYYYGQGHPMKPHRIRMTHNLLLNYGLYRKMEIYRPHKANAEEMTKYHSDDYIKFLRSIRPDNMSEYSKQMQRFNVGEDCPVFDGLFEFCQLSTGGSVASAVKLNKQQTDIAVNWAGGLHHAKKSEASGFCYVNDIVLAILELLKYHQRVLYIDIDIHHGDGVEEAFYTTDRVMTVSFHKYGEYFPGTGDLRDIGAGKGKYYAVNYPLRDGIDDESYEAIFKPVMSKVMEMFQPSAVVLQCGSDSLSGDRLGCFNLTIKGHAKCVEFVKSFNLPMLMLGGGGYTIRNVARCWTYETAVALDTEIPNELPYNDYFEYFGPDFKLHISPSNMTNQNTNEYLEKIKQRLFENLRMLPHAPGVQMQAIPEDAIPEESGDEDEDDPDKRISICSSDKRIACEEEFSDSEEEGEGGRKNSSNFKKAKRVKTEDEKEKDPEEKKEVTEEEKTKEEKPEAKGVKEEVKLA

[4] = target: Macrophage migration inhibitory factor (Homo sapiens, UniProt P14174); assay: Inhibition of MIF (unknown origin) tautomerase activity incubated for 10 mins by microplate reader analysis
Chain of Macrophage migration inhibitory factor (P14174 whole entry): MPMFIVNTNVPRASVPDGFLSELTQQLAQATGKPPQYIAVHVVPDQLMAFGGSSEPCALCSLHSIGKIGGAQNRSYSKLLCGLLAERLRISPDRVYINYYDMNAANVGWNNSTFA

MCF7 [5] = assay: Antiproliferative activity against human MCF7 cells assessed as inhibition of cell growth incubated for 48 hrs by MTT assay; type: functional, cell-based; conditions: MCF7, 48 h
HCT-116 [6] = assay: Antiproliferative activity against human HCT-116 cells assessed as inhibition of cell growth incubated for 48 hrs by MTT assay; type: functional, cell-based; conditions: HCT-116, 48 h
Histone deacetylase [7] = assay: Inhibition of HDAC in human HeLa nuclear extract using Boc-Lys(Ac)-AMC or Boc-Lys(Tfa)-AMC as substrate preincubated for 5 mins followed by substrate addition and measured after 30 mins by fluorescence assay; type: cell-free
Ephrin type-A receptor 2 = Ephrin type-A receptor 2 (Homo sapiens, UniProt P29317); assay: Inhibition of EphA2 (unknown origin) incubated for 30 mins by TR-FRET assay
Chain of Ephrin type-A receptor 2 (P29317 whole entry): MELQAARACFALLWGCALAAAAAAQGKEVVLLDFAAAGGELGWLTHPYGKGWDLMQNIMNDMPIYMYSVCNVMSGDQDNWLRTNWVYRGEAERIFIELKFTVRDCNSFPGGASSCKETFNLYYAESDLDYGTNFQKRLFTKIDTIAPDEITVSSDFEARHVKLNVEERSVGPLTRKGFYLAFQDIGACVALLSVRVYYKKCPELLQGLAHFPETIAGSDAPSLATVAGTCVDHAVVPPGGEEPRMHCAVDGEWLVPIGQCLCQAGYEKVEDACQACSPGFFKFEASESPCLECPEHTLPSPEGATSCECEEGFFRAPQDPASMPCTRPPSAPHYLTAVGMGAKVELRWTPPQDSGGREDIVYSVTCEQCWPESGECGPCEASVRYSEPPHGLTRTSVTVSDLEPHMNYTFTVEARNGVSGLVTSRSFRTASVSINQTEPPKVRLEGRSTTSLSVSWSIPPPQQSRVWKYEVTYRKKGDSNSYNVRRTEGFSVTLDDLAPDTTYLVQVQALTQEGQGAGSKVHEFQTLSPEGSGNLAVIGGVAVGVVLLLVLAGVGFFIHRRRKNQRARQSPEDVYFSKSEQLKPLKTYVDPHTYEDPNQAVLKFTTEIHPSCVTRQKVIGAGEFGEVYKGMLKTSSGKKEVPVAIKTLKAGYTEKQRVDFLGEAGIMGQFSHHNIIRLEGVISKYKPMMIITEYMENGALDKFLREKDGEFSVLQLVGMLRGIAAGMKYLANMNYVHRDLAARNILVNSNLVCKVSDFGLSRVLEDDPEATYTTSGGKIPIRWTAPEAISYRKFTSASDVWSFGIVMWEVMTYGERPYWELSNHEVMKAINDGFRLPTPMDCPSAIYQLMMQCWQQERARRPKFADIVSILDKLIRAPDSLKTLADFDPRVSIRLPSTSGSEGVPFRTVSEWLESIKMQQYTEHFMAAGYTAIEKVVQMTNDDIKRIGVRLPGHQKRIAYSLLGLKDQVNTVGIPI

[8] = Antiproliferative activity against human MET-1 cells assessed as inhibition of cell growth; type: functional, cell-based
SK-MEL-1 = assay: Antitumor activity against human SK-MEL-1 cells assessed as tumor growth inhibition at 30 mg/kg, ip administered for 28 days; type: functional; conditions: SK-MEL-1, 672 h, time 28 day, read-out: TGI
[9] = Antiproliferative activity against human SCCIC1 cells assessed as inhibition of cell growth; type: functional, cell-based
HCT-116 [10] = assay: Antiproliferative activity against human HCT-116 cells assessed as inhibition of cell growth; type: functional, cell-based
Histone deacetylase 1 [11] = target: T2, Histone deacetylase 1; assay: Inhibition of HDAC1 (unknown origin)
Histone deacetylase 2 [12] = target: T1, Histone deacetylase 2; assay: Inhibition of HDAC2 (unknown origin)
K562 = assay: Antiproliferative activity against human K562 cells assessed as inhibition of cell growth by MTT assay; type: functional, cell-based
MCF7 [13] = assay: Cytotoxicity against human MCF7 cells assessed as inhibition of cell growth; type: functional, cell-based
MGC-803 = assay: Cytotoxicity against human MGC-803 cells assessed as inhibition of cell growth; type: functional, cell-based
[14] = target: Protein deacetylase HDAC6 (Homo sapiens, UniProt Q9UBN7); assay: Inhibition of HDAC6 (unknown origin)
Chain of Protein deacetylase HDAC6 (Q9UBN7 whole entry): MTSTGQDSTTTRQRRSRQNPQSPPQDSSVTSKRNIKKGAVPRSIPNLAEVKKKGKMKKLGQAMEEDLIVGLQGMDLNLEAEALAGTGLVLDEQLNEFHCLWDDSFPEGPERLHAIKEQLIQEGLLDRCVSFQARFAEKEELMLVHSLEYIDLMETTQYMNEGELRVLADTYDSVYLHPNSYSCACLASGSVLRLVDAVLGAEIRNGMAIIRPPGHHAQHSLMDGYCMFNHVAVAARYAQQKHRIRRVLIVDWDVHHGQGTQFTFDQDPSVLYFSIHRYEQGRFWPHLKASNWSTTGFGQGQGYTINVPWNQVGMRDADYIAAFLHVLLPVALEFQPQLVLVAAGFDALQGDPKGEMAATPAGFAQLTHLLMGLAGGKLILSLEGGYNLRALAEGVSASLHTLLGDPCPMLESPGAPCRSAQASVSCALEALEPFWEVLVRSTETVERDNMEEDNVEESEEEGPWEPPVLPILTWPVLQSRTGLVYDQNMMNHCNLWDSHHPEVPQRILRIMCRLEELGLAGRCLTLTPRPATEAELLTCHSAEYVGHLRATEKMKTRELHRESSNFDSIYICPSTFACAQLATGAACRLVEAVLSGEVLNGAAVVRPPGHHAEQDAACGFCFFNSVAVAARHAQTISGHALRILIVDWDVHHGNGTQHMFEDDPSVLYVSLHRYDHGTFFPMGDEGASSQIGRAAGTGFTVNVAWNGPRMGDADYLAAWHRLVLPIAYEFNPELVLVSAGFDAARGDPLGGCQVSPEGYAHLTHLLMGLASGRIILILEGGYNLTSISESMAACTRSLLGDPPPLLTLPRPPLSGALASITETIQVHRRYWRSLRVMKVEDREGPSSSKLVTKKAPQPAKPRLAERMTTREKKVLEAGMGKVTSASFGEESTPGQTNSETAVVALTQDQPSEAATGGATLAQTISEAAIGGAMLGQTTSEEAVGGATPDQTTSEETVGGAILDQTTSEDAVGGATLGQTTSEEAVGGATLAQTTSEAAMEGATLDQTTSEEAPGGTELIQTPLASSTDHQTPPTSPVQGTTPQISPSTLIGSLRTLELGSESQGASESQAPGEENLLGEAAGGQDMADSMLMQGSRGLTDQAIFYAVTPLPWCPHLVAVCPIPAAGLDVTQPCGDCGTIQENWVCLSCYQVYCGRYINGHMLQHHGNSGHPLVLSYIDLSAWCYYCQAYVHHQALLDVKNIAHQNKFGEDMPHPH

HeLa = assay: Cytotoxicity against human HeLa cells assessed as inhibition of cell growth; type: functional, cell-based
HepG2 [15] = assay: Cytotoxicity against human HepG2 cells assessed as inhibition of cell growth; type: functional, cell-based
U-937 = assay: Cytotoxicity against human U-937 cells assessed as inhibition of cell growth; type: functional, cell-based
[16] = target: Bromodomain-containing protein 4 (Homo sapiens, UniProt O60885); assay: Inhibition of BRD4 BD1 (unknown origin)
HepG2 [17] = assay: Antiproliferative activity against human HepG2 cells assessed as inhibition of cell growth incubated for 72 hrs by CCK-8 assay; type: functional, cell-based; conditions: HepG2, 72 h
NCI-H2228 = assay: Antiproliferative activity against human NCI-H2228 cells assessed as inhibition of cell growth incubated for 72 hrs by CCK-8 assay; type: functional, cell-based; conditions: NCI-H2228, 72 h
A549 = assay: Antiproliferative activity against human A549 cells assessed as inhibition of cell growth incubated for 72 hrs by CCK-8 assay; type: functional, cell-based; conditions: A549, 72 h
SK-N-BE(2) = assay: Antiproliferative activity against human SK-N-BE(2) cells assessed as inhibition of cell growth incubated for 72 hrs by CCK-8 assay; type: functional, cell-based; conditions: SKNBE2, 72 h

CCN1CCN(c2cc(Nc3ncc(C(=O)Nc4ccccc4N)s3)ncn2)CC1
IC50 (Histone deacetylase [1]): 15000 nM

Nc1ccccc1NC(=O)c1ccc(NC(=O)Cc2ccc(N3Cc4ccc(O)cc4OC3=O)cc2)cc1
IC50 (Histone deacetylase 2 [2]): 1100 nM
IC50 (Histone deacetylase 3): 600 nM
IC50 (Histone deacetylase 1 [3]): 200 nM
IC50 [4]: 180 nM

COc1ccc(C(=O)Nc2ccc(NC(=O)Nc3ccccc3N)cc2)cc1
IC50 (MCF7 [5]): 7420 nM
IC50 (HCT-116 [6]): 5290 nM
IC50 (Histone deacetylase [7]): 1520 nM
IC50 (Ephrin type-A receptor 2): 570 nM

Nc1ccccc1NC(=O)c1ccc(CCCC(=O)Nc2ccc([C@@H]3C[C@H]3N)cc2)cc1
IC50 [8]: 6 nM
inhibition in vivo at 30 mg/kg (SK-MEL-1): 61%
IC50 [9]: 41 nM

CN1c2ccc(NCc3ccc(C(=O)Nc4ccccc4N)cc3)cc2C(=O)N2CCc3c([nH]c4ccc(O)cc34)[C@H]21
IC50 (HCT-116 [10]): 2150 nM
IC50 (Histone deacetylase 1 [11]): 400 nM
IC50 (Histone deacetylase 2 [12]): 2140 nM

CCN1CCN(c2cc(Nc3ncc(C(=O)Nc4ccc(F)cc4N)s3)ncn2)CC1
IC50 (Histone deacetylase [1]): 810 nM
IC50 (K562): 2620 nM

COc1cc2c(cc1OCc1ccc(C(=O)Nc3ccccc3N)cc1)CC[C@@H]1[C@H]3CC[C@@H](O)[C@]3(C)CC[C@@H]21
IC50 (MCF7 [13]): 370 nM
IC50 (MGC-803): 370 nM
IC50 [14]: 120 nM
IC50 (HeLa): 370 nM
IC50 (HepG2 [15]): 370 nM
IC50 (Histone deacetylase 2 [12]): 60 nM
IC50 (U-937): 371 nM

Cc1sc2c(c1C)C(c1ccc(Cl)cc1)=N[C@@H](CC(=O)Nc1ccc(C(=O)Nc3ccccc3N)cc1)c1nnc(C)n1-2
IC50 [16]: 729 nM

CC(C)S(=O)(=O)c1ccccc1Nc1nc(Nc2ccc(C(=O)Nc3ccccc3N)cc2)ncc1Cl
IC50 (HepG2 [17]): 10 nM
IC50 (NCI-H2228): 110 nM
IC50 (A549): 2 nM
IC50 (SK-N-BE(2)): 3 nM

CN1c2ccc(NCc3ccc(C(=O)Nc4ccccc4N)cc3)cc2C(=O)N2CCc3c([nH]c4ccccc34)[C@H]21
IC50 (HCT-116 [10]): 2760 nM
IC50 (Histone deacetylase 1 [11]): 1510 nM
IC50 (Histone deacetylase 2 [12]): 6250 nM
